What was measured:
Experiment in all cases: Bliss interaction score (quartile over a dose matrix) (fitness difference); higher = more antagonism (negative = synergy)
B. subtilis 168 = system: B. subtilis 168
Summary of the method: (§1)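 Growth in each well was taken as OD595 at entry into stationary phase. Dividing by the plate's robust no-drug mean and capping at 1 gave fitness, and single-drug fitness was inferred from the combination data. The Bliss score, observed minus product-expected fitness, is summarised by quartiles over technical, biological and donor/recipient replicates.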

S. aureus DSM 20231 = system: S. aureus DSM 20231
Summary of the method: as §1

S. aureus Newman = system: S. aureus Newman
Summary of the method: as §1

S. pneumoniae D39V = system: S. pneumoniae D39V
Summary of the method: as §1
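Note: first quartile when negative (synergy) and third quartile when positive (antagonism).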

| SMILES | Bliss interaction score (B. subtilis 168) | Bliss interaction score (S. aureus DSM 20231) | Bliss interaction score (S. aureus Newman) | Bliss interaction score (S. pneumoniae D39V) | Bliss interaction score (B. subtilis 168; main component drawn) | Bliss interaction score (S. aureus DSM 20231; main component drawn) | Bliss interaction score (S. aureus Newman; main component drawn) | Bliss interaction score (S. pneumoniae D39V; main component drawn) |
| --- | --- | --- | --- | --- | --- | --- | --- | --- |
| CO[C@@H]1[C@@H](OC(N)=O)[C@@H](O)[C@H](Oc2ccc3c(O)c(NC(=O)c4ccc(O)c(CC=C(C)C)c4)c(=O)oc3c2C)OC1(C)C [Novobiocin] + CC1(C)S[C@@H]2[C@H](NC(=O)Cc3ccccc3)C(=O)N2[C@H]1C(=O)O [PenicillinG] | 0.0716 | -0.0356 | -0.0408 | -0.0976 |  |  |  |  |
| CO[C@@H]1[C@@H](OC(N)=O)[C@@H](O)[C@H](Oc2ccc3c(O)c(NC(=O)c4ccc(O)c(CC=C(C)C)c4)c(=O)oc3c2C)OC1(C)C [Novobiocin] + CCCCCCCCCC(=O)N[C@@H]1[C@H]([C@@H]([C@H](O[C@H]1OC2=C3C=C4C=C2OC5=C(C=C(C=C5)[C@H]([C@H]6C(=O)N[C@@H](C7=C(C(=CC(=C7)O)OC8[C@H]([C@H]([C@@H]([C@H](O8)CO)O)O)O)C9=C(C=CC(=C9)[C@H](C(=O)N6)NC(=O)[C@@H]4NC(=O)[C@@H]1C2=CC(=CC(=C2)OC2=C(C=CC(=C2)[C@H](C(=O)N[C@H](CC2=CC(=C(O3)C=C2)Cl)C(=O)N1)N)O)O)O)C(=O)O)O[C@H]1[C@@H]([C@H]([C@@H]([C@H](O1)CO)O)O)NC(=O)C)Cl)CO)O)O [Teicoplanin] |  |  |  |  | 0.127 | -0.102 | -0.234 | 0.0574 |
| CO[C@@H]1[C@@H](OC(N)=O)[C@@H](O)[C@H](Oc2ccc3c(O)c(NC(=O)c4ccc(O)c(CC=C(C)C)c4)c(=O)oc3c2C)OC1(C)C [Novobiocin] + CC[C@H]1OC(=O)[C@H](C)C(=O)[C@H](C)[C@@H](O[C@@H]2O[C@H](C)C[C@H](N(C)C)[C@H]2O)[C@](C)(OC)C[C@@H](C)C(=O)[C@H](C)[C@H]2N(CCCCn3cnc(-c4cccnc4)c3)C(=O)O[C@]12C [Telithromycin] | 0.0833 | 0.0515 | -0.0192 | 0.0464 |  |  |  |  |
| CO[C@@H]1[C@@H](OC(N)=O)[C@@H](O)[C@H](Oc2ccc3c(O)c(NC(=O)c4ccc(O)c(CC=C(C)C)c4)c(=O)oc3c2C)OC1(C)C [Novobiocin] + CN[C@H](CC(C)C)C(=O)N[C@H]1C(=O)N[C@@H](CC(N)=O)C(=O)N[C@H]2C(=O)N[C@H]3C(=O)N[C@H](C(=O)N[C@H](C(=O)O)c4cc(O)cc(O)c4-c4cc3ccc4O)[C@H](O)c3ccc(c(Cl)c3)Oc3cc2cc(c3O[C@@H]2O[C@H](CO)[C@@H](O)[C@H](O)[C@H]2O[C@H]2C[C@](C)(N)[C@H](O)[C@H](C)O2)Oc2ccc(cc2Cl)[C@H]1O [Vancomycin] | 0.071 | -0.0386 | -0.0447 | -0.133 |  |  |  |  |
| CO[C@@H]1[C@@H](OC(N)=O)[C@@H](O)[C@H](Oc2ccc3c(O)c(NC(=O)c4ccc(O)c(CC=C(C)C)c4)c(=O)oc3c2C)OC1(C)C [Novobiocin] + CN[C@H](CC(C)C)C(=O)N[C@H]1C(=O)N[C@@H](CC(N)=O)C(=O)N[C@H]2C(=O)N[C@H]3C(=O)N[C@H](C(=O)N[C@H](C(=O)O)c4cc(O)cc(O)c4-c4cc3ccc4O)[C@H](O[C@H]3C[C@](C)(N)[C@@H](O)[C@H](C)O3)c3ccc(c(Cl)c3)Oc3cc2cc(c3O[C@@H]2O[C@H](CO)[C@@H](O)[C@H](O)[C@H]2O[C@H]2C[C@](C)(NCc3ccc(-c4ccc(Cl)cc4)cc3)[C@@H](O)[C@H](C)O2)Oc2ccc(cc2Cl)[C@H]1O [Oritavancin] | -0.0421 | -0.0612 | -0.0768 | 0.0403 |  |  |  |  |
| CO[C@@H]1[C@@H](OC(N)=O)[C@@H](O)[C@H](Oc2ccc3c(O)c(NC(=O)c4ccc(O)c(CC=C(C)C)c4)c(=O)oc3c2C)OC1(C)C [Novobiocin] + CO[C@H]1/C=C/O[C@@]2(C)Oc3c(C)c(O)c4c(O)c(c(/C=N/N5CCN(C)CC5)c(O)c4c3C2=O)NC(=O)/C(C)=C\C=C\[C@H](C)[C@H](O)[C@@H](C)[C@@H](O)[C@@H](C)[C@H](OC(C)=O)[C@@H]1C [Rifampicin] | 0.0681 | 0.0573 | 0.0819 | 0.159 |  |  |  |  |
| CO[C@@H]1[C@@H](OC(N)=O)[C@@H](O)[C@H](Oc2ccc3c(O)c(NC(=O)c4ccc(O)c(CC=C(C)C)c4)c(=O)oc3c2C)OC1(C)C [Novobiocin] + Cn1nnc(-c2ccc(-c3ccc(N4C[C@H](CO)OC4=O)cc3F)cn2)n1 [Tedizolid] | 0.0533 | -0.0789 | -0.0571 | -0.131 |  |  |  |  |
| CO[C@@H]1[C@@H](OC(N)=O)[C@@H](O)[C@H](Oc2ccc3c(O)c(NC(=O)c4ccc(O)c(CC=C(C)C)c4)c(=O)oc3c2C)OC1(C)C [Novobiocin] + Oc1cc(Cl)ccc1Oc1ccc(Cl)cc1Cl [Triclosan] | 0.0532 | 0.0686 | -0.0304 | 0.177 |  |  |  |  |
| CN[C@H](CC(C)C)C(=O)N[C@H]1C(=O)N[C@@H](CC(N)=O)C(=O)N[C@H]2C(=O)N[C@H]3C(=O)N[C@H](C(=O)N[C@H](C(=O)O)c4cc(O)cc(O)c4-c4cc3ccc4O)[C@H](O[C@H]3C[C@](C)(N)[C@@H](O)[C@H](C)O3)c3ccc(c(Cl)c3)Oc3cc2cc(c3O[C@@H]2O[C@H](CO)[C@@H](O)[C@H](O)[C@H]2O[C@H]2C[C@](C)(NCc3ccc(-c4ccc(Cl)cc4)cc3)[C@@H](O)[C@H](C)O2)Oc2ccc(cc2Cl)[C@H]1O [Oritavancin] + C/C(=C\C(=O)OCCCCCCCCC(=O)O)C[C@@H]1OC[C@H](C[C@@H]2O[C@H]2[C@@H](C)[C@H](C)O)[C@@H](O)[C@H]1O [Pseudomonic acid] | 0.0341 | 0.0201 | 0.0197 | 0.0558 |  |  |  |  |
| CN[C@H](CC(C)C)C(=O)N[C@H]1C(=O)N[C@@H](CC(N)=O)C(=O)N[C@H]2C(=O)N[C@H]3C(=O)N[C@H](C(=O)N[C@H](C(=O)O)c4cc(O)cc(O)c4-c4cc3ccc4O)[C@H](O[C@H]3C[C@](C)(N)[C@@H](O)[C@H](C)O3)c3ccc(c(Cl)c3)Oc3cc2cc(c3O[C@@H]2O[C@H](CO)[C@@H](O)[C@H](O)[C@H]2O[C@H]2C[C@](C)(NCc3ccc(-c4ccc(Cl)cc4)cc3)[C@@H](O)[C@H](C)O2)Oc2ccc(cc2Cl)[C@H]1O [Oritavancin] + CC1(C)S[C@@H]2[C@H](NC(=O)Cc3ccccc3)C(=O)N2[C@H]1C(=O)O [PenicillinG] | 0.0358 | 0.0356 | -0.066 | 0.0412 |  |  |  |  |
| CN[C@H](CC(C)C)C(=O)N[C@H]1C(=O)N[C@@H](CC(N)=O)C(=O)N[C@H]2C(=O)N[C@H]3C(=O)N[C@H](C(=O)N[C@H](C(=O)O)c4cc(O)cc(O)c4-c4cc3ccc4O)[C@H](O[C@H]3C[C@](C)(N)[C@@H](O)[C@H](C)O3)c3ccc(c(Cl)c3)Oc3cc2cc(c3O[C@@H]2O[C@H](CO)[C@@H](O)[C@H](O)[C@H]2O[C@H]2C[C@](C)(NCc3ccc(-c4ccc(Cl)cc4)cc3)[C@@H](O)[C@H](C)O2)Oc2ccc(cc2Cl)[C@H]1O [Oritavancin] + CC1=C\[C@@H](O)CC(=O)Cc2nc(co2)C(=O)N2CCC=C2C(=O)O[C@H](C(C)C)[C@H](C)/C=C/C(=O)NC\C=C\1 [Virginiamycin M1] | -0.0178 | -0.0348 | -0.0713 | 0.0739 |  |  |  |  |
| CN[C@H](CC(C)C)C(=O)N[C@H]1C(=O)N[C@@H](CC(N)=O)C(=O)N[C@H]2C(=O)N[C@H]3C(=O)N[C@H](C(=O)N[C@H](C(=O)O)c4cc(O)cc(O)c4-c4cc3ccc4O)[C@H](O[C@H]3C[C@](C)(N)[C@@H](O)[C@H](C)O3)c3ccc(c(Cl)c3)Oc3cc2cc(c3O[C@@H]2O[C@H](CO)[C@@H](O)[C@H](O)[C@H]2O[C@H]2C[C@](C)(NCc3ccc(-c4ccc(Cl)cc4)cc3)[C@@H](O)[C@H](C)O2)Oc2ccc(cc2Cl)[C@H]1O [Oritavancin] + CCCCCCCCCC(=O)N[C@@H]1[C@H]([C@@H]([C@H](O[C@H]1OC2=C3C=C4C=C2OC5=C(C=C(C=C5)[C@H]([C@H]6C(=O)N[C@@H](C7=C(C(=CC(=C7)O)OC8[C@H]([C@H]([C@@H]([C@H](O8)CO)O)O)O)C9=C(C=CC(=C9)[C@H](C(=O)N6)NC(=O)[C@@H]4NC(=O)[C@@H]1C2=CC(=CC(=C2)OC2=C(C=CC(=C2)[C@H](C(=O)N[C@H](CC2=CC(=C(O3)C=C2)Cl)C(=O)N1)N)O)O)O)C(=O)O)O[C@H]1[C@@H]([C@H]([C@@H]([C@H](O1)CO)O)O)NC(=O)C)Cl)CO)O)O [Teicoplanin] |  |  |  |  | -0.0407 | -0.0634 | -0.117 | 0.0813 |
| CN[C@H](CC(C)C)C(=O)N[C@H]1C(=O)N[C@@H](CC(N)=O)C(=O)N[C@H]2C(=O)N[C@H]3C(=O)N[C@H](C(=O)N[C@H](C(=O)O)c4cc(O)cc(O)c4-c4cc3ccc4O)[C@H](O[C@H]3C[C@](C)(N)[C@@H](O)[C@H](C)O3)c3ccc(c(Cl)c3)Oc3cc2cc(c3O[C@@H]2O[C@H](CO)[C@@H](O)[C@H](O)[C@H]2O[C@H]2C[C@](C)(NCc3ccc(-c4ccc(Cl)cc4)cc3)[C@@H](O)[C@H](C)O2)Oc2ccc(cc2Cl)[C@H]1O [Oritavancin] + CCN(CC)CCOC(=O)c1ccc(N)cc1 [Procaine] | -0.0177 | -0.0785 | -0.0513 | -0.0615 |  |  |  |  |
| CN[C@H](CC(C)C)C(=O)N[C@H]1C(=O)N[C@@H](CC(N)=O)C(=O)N[C@H]2C(=O)N[C@H]3C(=O)N[C@H](C(=O)N[C@H](C(=O)O)c4cc(O)cc(O)c4-c4cc3ccc4O)[C@H](O[C@H]3C[C@](C)(N)[C@@H](O)[C@H](C)O3)c3ccc(c(Cl)c3)Oc3cc2cc(c3O[C@@H]2O[C@H](CO)[C@@H](O)[C@H](O)[C@H]2O[C@H]2C[C@](C)(NCc3ccc(-c4ccc(Cl)cc4)cc3)[C@@H](O)[C@H](C)O2)Oc2ccc(cc2Cl)[C@H]1O [Oritavancin] + CC[C@H]1OC(=O)[C@H](C)C(=O)[C@H](C)[C@@H](O[C@@H]2O[C@H](C)C[C@H](N(C)C)[C@H]2O)[C@](C)(OC)C[C@@H](C)C(=O)[C@H](C)[C@H]2N(CCCCn3cnc(-c4cccnc4)c3)C(=O)O[C@]12C [Telithromycin] | 0.0211 | -0.0333 | -0.0486 | 0.0281 |  |  |  |  |
| CN[C@H](CC(C)C)C(=O)N[C@H]1C(=O)N[C@@H](CC(N)=O)C(=O)N[C@H]2C(=O)N[C@H]3C(=O)N[C@H](C(=O)N[C@H](C(=O)O)c4cc(O)cc(O)c4-c4cc3ccc4O)[C@H](O[C@H]3C[C@](C)(N)[C@@H](O)[C@H](C)O3)c3ccc(c(Cl)c3)Oc3cc2cc(c3O[C@@H]2O[C@H](CO)[C@@H](O)[C@H](O)[C@H]2O[C@H]2C[C@](C)(NCc3ccc(-c4ccc(Cl)cc4)cc3)[C@@H](O)[C@H](C)O2)Oc2ccc(cc2Cl)[C@H]1O [Oritavancin] + CN1C2=CC=CC=C2N=C3C1=CC=CC3=O [Pyocyanin] | -0.0238 | -0.047 | -0.105 | -0.0208 |  |  |  |  |
| CN[C@H](CC(C)C)C(=O)N[C@H]1C(=O)N[C@@H](CC(N)=O)C(=O)N[C@H]2C(=O)N[C@H]3C(=O)N[C@H](C(=O)N[C@H](C(=O)O)c4cc(O)cc(O)c4-c4cc3ccc4O)[C@H](O[C@H]3C[C@](C)(N)[C@@H](O)[C@H](C)O3)c3ccc(c(Cl)c3)Oc3cc2cc(c3O[C@@H]2O[C@H](CO)[C@@H](O)[C@H](O)[C@H]2O[C@H]2C[C@](C)(NCc3ccc(-c4ccc(Cl)cc4)cc3)[C@@H](O)[C@H](C)O2)Oc2ccc(cc2Cl)[C@H]1O [Oritavancin] + CN(C)c1cc(NC(=O)CNC(C)(C)C)c(O)c2c1C[C@H]1C[C@H]3[C@H](N(C)C)C(O)=C(C(N)=O)C(=O)[C@@]3(O)C(O)=C1C2=O [Tigecycline] | -0.0328 | -0.0305 | -0.0634 | 0.0458 |  |  |  |  |

Source: the supplement of paper PMC10627819
